Experiments:
[1] = target: T1, aldose reductase in a crude extract of rat lens (Rattus norvegicus, UniProt P07943); experiment: Reversible inhibition of aldose reductase (Ki and type of inhibition); format: biochemical
T1 construct: aldose reductase in a crude extract of rat lens; from tissue; host or cells: rat lens (crude extract, usually lyophilized)
Procedure: (§1) Lens aldose reductase used for test purposes was extracted and assayed by the technique reported by Hayman and Kinoshita (see J.Biol. Chem. 240, 877-882 (1965)). The extract was usually adjusted to pH 7.0 and lyophilized. This product is stable indefinitely in the cold and provides particularly reliable assay results since day to day rates are reproducible.
The Ki and type of inhibition of aldose reductase by Asub-Q (0.274 mM) was determined at pH 6.3 in 0.1M phosphate buffer using a saturating concentration of NADPH (121 uM). The results are plotted in FIG. 6.

[2] = tested on: cataract formation in rats; experiment: Cataract formation in galactose-fed rats: light irradiated; format: in vivo, rat
Procedure: Approximately 5-10 μl of Asub-Q (0.65 mM) dissolved in DMSO was injected into the aqueous humour of the right eye of each of three 75 g. rats. After 1 hour, when the drug had diffused into the lens, the rat was irradiated for 30 minutes in a Rayonet Photochemical Reactor. The rats were fed ad-libinum with a mix of 1:1 chow:galactose. The control eyes (left eye) developed detectable cataracts after 3 days.

[3] = tested on: cataract formation in rat lenses; experiment: Cataract formation in rat lenses in organ culture: X-ray irradiated; format: cell-based; details: 175 Rads X-rays, galactose, eight days
Procedure: (§2) Organ culture was performed by a modification of the method of Kinoshita et al (see Biochem. Biophys. Acta 158, 472-475 (1968)) with a modified TC 199 medium using 50-75 gm Sprague-Dawly male rats, care being taken to avoid contamination of the system. Fresh rat lenses were treated with Asub-Q in the manner hereinafter described and incubated in the presence of fructose and in the presence of galactose, in order to determine the effect of the Asub-Q. The Asub-Q treatment involved the following:
This experiment was similar to the photoirradiation experiment except that the lenses were irradiated with 175 Rads of X-rays in place of light. […] Lenses incubated with galactose would be completely opaque (V).

[4] = target: T2, aldose reductase (Rattus norvegicus, UniProt P07943); experiment: X-ray induced irreversible inhibition of aldose reductase; format: biochemical
Procedure: as §1
X-ray irradiation was performed with a General Electric Maximum-100 type X-ray machine using the following settings: 100 kVp, 5 ma, 3 mm Al added, HUL=2.6 mm Al, calibrated output=175 R/min. at 15 cm. Two ml of solution with components at the same concentrations used in photolysis experiments were X-rayed in 50 mm diameter open petri dishes placed at 15.9 cm from the X-ray source. The dosages were varied from 5 to 100 Rads, requiring 1, 2, 3, 4, 34 and 51 seconds exposure, respectively.

[5] = target: T2, aldose reductase; experiment: Irreversible inhibition of aldose reductase induced by photoirradiation (350 nm); format: biochemical
Procedure: as §1
Photolysis of Asub-Q and aldose reductase was studied in the presence and absence of saturating substrate concentrations (0.274 mM glyceraldehyde, and 0.111 mM NADPH) in 0.1M phosphate buffer, pH 6.3. Photolysis was performed in 3 ml quartz spectrophotometer cuvettes in a Rayonet photochemical reactor with a 350 nm maxima light source. The enzyme was separated from the non-covalently bound inhibitor by passing the photolyzed solution through a Sephadex G-25 column as described above. The results are plotted in FIG. 7. […] The enzyme photolyzed with inhibitor in the presence or absence of substrate is 80% inhibited after 10 minutes.

[6] = tested on: cataract formation in rat lenses; experiment: Cataract formation in rat lenses in organ culture: light irradiated; format: cell-based
Procedure: as §2
(a) rat lenses were incubated in the dark in an incubation medium containing Asub-Q for two hours to permit the drug to diffuse into the lens;
(b) the lenses were then placed into a fresh medium and irradiated for 10 minutes for complete inhibition of aldose reductase;
(c) the lenses were then placed into a fresh medium for […] with four changes in medium in the first 24 hours to permit non-covalently bound drug to diffuse out; and
(d) the lenses were then incubated in a medium containing fructose or galactose.
In a typical experiment four groups of 20 lens, four to a Petri dish, were used. The first group was supplemented with fructose (30 mM); the second, with galactose (30 mM); the third, with fructose (30 mM) and treated with Asub-Q (0.145 mM); and the fourth, with galactose (30 mM) and treated with Asub-Q ([…]). The lens were photographed with color film on a red background and evaluated on a O to V scale with O assigned to a clear lens and V to a lens with a totally opaque cataract. The procedure for treatment and photolysis of the lens was described above.
The number outside the parenthesis is the status of the lenses: O to V. The number inside the parenthesis is the number of the lenses.

[7] = pH 6.3, 0.1M phosphate buffer, NADPH 121 uM

N-(2-nitro-4-azidophenyl) hexylenediamine-N-(2'-O-quercitrin) [Asub-Q]
Ki compared with quercitrin ([1]; crude extract of rat lens): very similar to quercitrin | Ki [1, 7]: 480 nM | type of inhibition [1, 7]: noncompetitive inhibitor | reversible inhibitor activity compared with quercitrin ([1]; summary statement): about the same as quercitrin | reversible inhibition of aldose reductase ([1]; without photolysis): reversibly inhibits aldose reductase | cataract in treated right eyes ([2]; 5-10 μl of 0.65 mM in aqueous humour, light 30 minutes, 1:1 chow:galactose, 7 days): no cataract was observed | cataract formation, repeat experiment ([2]; repeated on thirty rats): equivalent results | number of lenses per cataract status [3]: 5 clear lenses (O) and 6 with a slight cataract (I) | loss of enzyme activity ([4]; 20 Rads irradiation or above): approximately two thirds | irreversible inhibition of aldose reductase ([4]; mixture of Asub-Q and rat lens extract irradiated with X-rays): extensively irreversibly inhibited | inhibition of enzyme photolyzed with inhibitor ([5]; 10 minutes photolysis, 350 nm, in presence or absence of substrate, pH 6.3): 80% | type of inhibition after irradiation (kinetic analysis) ([5]; light maximum at 350 nm, chromatographic removal of small molecules): both specific irreversible inhibition and non-specifically bound reversible (soluble immobilized inhibitor) inhibition occur | irreversible inhibition ([5]; one minute photolysis, 350 nm): roughly 40% | irreversible inhibition on irradiation ([5]; photo- or X-ray irradiation, summary statement): photo- or X-ray sensitive irreversible affinity inhibitor for aldose reductase | cataract progression vs fructose control ([6]; day 35): not nearly as advanced | lens clarity ([6]; lenses containing Asub-Q, after three days): remained clear | resistance to cataract formation vs fructose control lenses ([6]; overall, organ culture): at least as impervious to cataract formation as control lenses that were incubated with fructose

Source: patent US4771130A, “Target-entrapped drugs” (priority 1984, dated 1988)
